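Protocol summary: plate cells (96-well), add compound at 5 concentrations, incubate 48 h, interpolate endpoints linearly. GI50 is the concentration that inhibits growth by half.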 Calls of active or inactive are those of the source. No stated cut-off is given here; in the data, active = GI50 up to about 1.1 µM and inactive = higher.
What was measured:
Experiment in all cases: NCI-60 cell line screen, 48 h
COLO 205 = system: COLO 205
EKVX = system: EKVX
HCT-116 = system: HCT-116
HCT-15 = system: HCT-15
HL-60 = system: HL-60
IGROV-1 = system: IGROV-1
K562 = system: K562
NCI-H460 = system: NCI-H460
OVCAR-3 = system: OVCAR-3
OVCAR-4 = system: OVCAR-4
OVCAR-8 = system: OVCAR-8
SF-539 = system: SF-539
SK-MEL-28 = system: SK-MEL-28
SK-MEL-5 = system: SK-MEL-5
SK-OV-3 = system: SK-OV-3
SNB-19 = system: SNB-19
UACC-62 = system: UACC-62
UO-31 = system: UO-31
MCF7 = system: MCF7
MDA-MB-231 = system: MDA-MB-231

Compound	GI50 (COLO 205)	GI50 (EKVX)	GI50 (HCT-116)	GI50 (HCT-15)	GI50 (HL-60)	GI50 (IGROV-1)	GI50 (K562)	GI50 (NCI-H460)	GI50 (OVCAR-3)	GI50 (OVCAR-4)	GI50 (OVCAR-8)	GI50 (SF-539)	GI50 (SK-MEL-28)	GI50 (SK-MEL-5)	GI50 (SK-OV-3)	GI50 (SNB-19)	GI50 (UACC-62)	GI50 (UO-31)	GI50 (MCF7)	GI50 (MDA-MB-231)
CCOc1ccc(/N=N/c2ccc3oc(=O)c(/C(C)=N/NC(=O)CC(=O)Nc4cccc(OC)c4)cc3c2)cc1	28.1 µM (inactive)	19.4 µM (inactive)	10.2 µM (inactive)	30.3 µM	3.64 µM (inactive)	23.6 µM (inactive)	7.96 µM (inactive)	20 µM (inactive)	13.4 µM (inactive)	16.3 µM (inactive)	18.7 µM (inactive)	17.2 µM (inactive)	20.8 µM (inactive)	20.2 µM (inactive)	38.8 µM (inactive)	12.2 µM (inactive)	13.2 µM (inactive)	12.3 µM (inactive)	–	–
CCCCCCCCCCCCNC(=O)NCC(OCC)OCC	> 10 µM (inactive)	> 10 µM (inactive)	> 10 µM (inactive)	> 10 µM	–	> 10 µM (inactive)	> 10 µM (inactive)	> 10 µM (inactive)	–	> 10 µM (inactive)	> 10 µM (inactive)	> 10 µM (inactive)	> 10 µM (inactive)	> 10 µM (inactive)	> 10 µM (inactive)	> 10 µM (inactive)	> 10 µM (inactive)	–	> 10 µM (inactive)	> 10 µM (inactive)
CC(C)CC1N=C(OCc2ccccc2)OC1=O (stereo not given)	> 10 µM (inactive)	> 100 µM (inactive)	> 100 µM (inactive)	> 100 µM	–	> 100 µM (inactive)	> 100 µM (inactive)	> 100 µM (inactive)	> 100 µM (inactive)	> 100 µM (inactive)	> 100 µM (inactive)	> 100 µM (inactive)	> 100 µM (inactive)	45.7 µM (inactive)	> 100 µM (inactive)	> 100 µM (inactive)	–	> 100 µM (inactive)	> 100 µM (inactive)	> 100 µM (inactive)
S=C(N1CCN(c2ccc(Cl)c(Cl)c2)CC1)N1CCN(c2ccc(Cl)c(Cl)c2)CC1	10.6 µM (inactive)	3.38 µM (inactive)	7.19 µM (inactive)	15.4 µM	–	10.7 µM (inactive)	12.2 µM (inactive)	–	13.5 µM (inactive)	13.7 µM (inactive)	14.8 µM (inactive)	–	14.7 µM (inactive)	15.1 µM (inactive)	12.5 µM (inactive)	12.5 µM (inactive)	15.5 µM (inactive)	13.1 µM (inactive)	11.7 µM (inactive)	9.08 µM (inactive)

Reference: ChEMBL document CHEMBL1201862, “PubChem BioAssay data set” (2004)
